Assay in all cases: NCI-60 cell line screen, 48 h
Assay [1] concerns 786-0.
The subject of assay [2] is CAKI-1.
Assay [3] concerns HT-29.
Assay [4] has as its system MDA-MB-231.
Assay [5] deals with MDA-MB-435.
Assay [6] has as its system NCI-H226.
The test system of assay [7] is NCI/ADR-RES.
The subject of assay [8] is OVCAR-4.
The subject of assay [9] is OVCAR-5.
Assay [10] has as its system PC-3.
In assay [11] the test system is SF-539.
The subject of assay [12] is SK-MEL-5.
The test system of assay [13] is SK-OV-3.
For assay [14], the system named is SN12C.
The test system of assay [15] is SR.
In assay [16] the test system is UACC-257.
For assay [17], the system named is UO-31.
Assay [18] concerns Malme-3M.
In assay [19] the test system is RXF 393.
The subject of assay [20] is MDA-N.

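Following 48 hours of exposure in 96-well plates, responses at five concentrations were used to interpolate endpoints linearly. The concentration for 50% growth inhibition is given as GI50.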 Activity calls are given as the source filed them. No stated cut-off is given here; in the data, active = GI50 up to about 1.1 µM and inactive = higher.

`COC(=O)CN(CC1O[C@@H]2OC(C)(C)O[C@@H]2C1N=[N+]=[N-])C(=O)OCc1ccccc1` (stereo partly drawn): the GI50 in assay [1], in assay [2], in assay [3], in assay [4], in assay [5] and in assay [6] was > 100 µM (inactive) throughout. Further, the GI50 was 30.9 µM (inactive) in assay [7]; > 100 µM (inactive) in assay [8]; > 100 µM (inactive) in [9]; > 100 µM (inactive) in assay [10]; > 100 µM (inactive) in [11]; > 100 µM (inactive) in assay [12]. Also, the GI50 in assay [13], in assay [14], in [15], in assay [16] and in assay [17] was > 100 µM (inactive) each time.

`Cc1cc(C(=O)CBr)c(CN2C(=O)c3ccccc3C2=O)c(=O)n1C`: the GI50 in [1] is 21.8 µM (inactive); in assay [2], 20.6 µM (inactive); in [3], 14.2 µM (inactive); in assay [4] it was 18.1 µM (inactive); in assay [5], 20.3 µM (inactive); in assay [18], 19.4 µM (inactive). Also, the GI50 is 49.5 µM (inactive) in assay [6]; 47.8 µM (inactive) in [7]; 14.7 µM (inactive) in [8]; 24.9 µM (inactive) in assay [9]; 17.2 µM (inactive) in [10]; 11 µM (inactive) in assay [19]. For the same molecule, the GI50 is 16.2 µM (inactive) in assay [11]; > 100 µM (inactive) in [13]; 17.6 µM (inactive) in assay [14]; 1.64 µM (inactive) in [15]; 17 µM (inactive) in assay [16]; 18.4 µM (inactive) in assay [17].

As for `COc1c2c(cc3nc4ccccc4nc13)CCC(C(C)(C)O)C2` (stereo not drawn), the GI50 in assay [1] was > 100 µM (inactive); in assay [2] it was > 100 µM (inactive); in [3], 66.4 µM (inactive); in assay [18], 65.6 µM (inactive); in [6] it was > 100 µM (inactive); in assay [8], > 100 µM (inactive). Besides, the GI50 in [9] was > 100 µM (inactive); in assay [19] it was > 100 µM (inactive); in [11], > 100 µM (inactive); in assay [12], 45.1 µM (inactive); in [13], > 100 µM (inactive); in [14], > 100 µM (inactive). The GI50 in assay [15] is 73.6 µM (inactive); in assay [16], > 100 µM (inactive); in [17], 83.2 µM (inactive).

Turning to `CCOC(=O)C1CCCCc2sc(N)c(C#N)c21` (stereo not drawn), the GI50 in assay [1] was > 100 µM (inactive); in assay [3], > 100 µM (inactive); in assay [4], > 100 µM (inactive); in assay [20], > 100 µM (inactive); in assay [18] it was 71.1 µM (inactive); in [6], > 100 µM (inactive). Moreover, the GI50 in assay [9], in assay [10], in assay [19], in assay [12], in assay [14] and in assay [15] was > 100 µM (inactive) throughout. Moreover, the GI50 in [16] and in assay [17] was > 100 µM (inactive) each time.

On to `N/N=C(\N)Nc1cccc2ccccc12`, for which the GI50 in [1], in assay [3], in assay [4], in [5], in assay [18] and in assay [6] was > 100 µM (inactive) each time. The GI50 in assay [7], in [8], in assay [9], in assay [19], in [11] and in assay [12] was > 100 µM (inactive) in each case. The GI50 in assay [13], in assay [14], in assay [15], in [16] and in assay [17] was > 100 µM (inactive) in each case.

With `CC1(C)O[C@@H](CP(c2ccccc2)c2ccccc2)[C@H](CP(c2ccccc2)c2ccccc2)O1`, the GI50 in assay [1] is 6.15 µM (inactive); in [2], 21 µM (inactive); in assay [3] it was 0.675 µM (active); in assay [4], 5.85 µM (inactive); in assay [5], 6.03 µM (inactive); in assay [20], 3.05 µM (inactive). The GI50 was 5.83 µM (inactive) in assay [18]; 6.52 µM (inactive) in assay [6]; 12.4 µM (inactive) in [7]; 9.08 µM (inactive) in assay [8]; 8.81 µM (inactive) in assay [9]; 8.15 µM (inactive) in assay [19]. For the same molecule, the GI50 in assay [11] is 7 µM (inactive); in assay [12], 5.74 µM (inactive); in assay [13], 15.2 µM (inactive); in [14] it was 4.11 µM (inactive); in assay [16], 6.98 µM (inactive); in assay [17] it was > 10 µM (inactive).

For `CC(C)=C1C(=O)C[C@]2(C)C[C@H]3O[C@]3(C)CC[C@@H]3O[C@@]3(C)CC[C@@H]12`, the GI50 in [1], in assay [2], in [3], in assay [4], in [5] and in [6] was > 50 µM (inactive) throughout. Also, the GI50 in [7], in assay [8], in assay [9], in [10], in [19] and in assay [11] was > 50 µM (inactive) throughout. Moreover, the GI50 in assay [13] is > 50 µM (inactive); in [14], > 50 µM (inactive); in assay [15], 34.5 µM (inactive); in assay [16], > 50 µM (inactive); in assay [17], 30.3 µM (inactive).

As to `CCOC(=O)c1nc2ccccc2nc1Nc1ccc(Cl)c(Cl)c1`, the GI50 in assay [1] was 29.2 µM (inactive); in [2], 24.5 µM (inactive); in assay [3] it was > 100 µM (inactive); in [4] it was > 100 µM (inactive); in assay [5] it was > 100 µM (inactive); in assay [20] it was 68.1 µM (inactive). The GI50 in assay [18] is 16.2 µM (inactive); in assay [7], > 100 µM (inactive); in assay [8], 27.9 µM (inactive); in assay [9], > 100 µM (inactive); in [11] it was 60.5 µM (inactive); in assay [12], 21.5 µM (inactive). The GI50 in assay [13] was 27.7 µM (inactive); in assay [14], 81.5 µM (inactive); in [15] it was > 100 µM (inactive); in assay [17], 40.8 µM (inactive).

Regarding `CC(C)OC(=O)NCCn1cc(-c2ccccc2)nn1`, the GI50 in assay [1], in assay [2], in assay [3], in assay [4], in assay [5] and in assay [18] was > 100 µM (inactive) in each case. Moreover, the GI50 in [6], in [7], in [8], in assay [9], in assay [10] and in assay [11] was > 100 µM (inactive) in each case. The GI50 in assay [12], in [14], in [15] and in assay [16] was > 100 µM (inactive) throughout.

With `Cc1cc(S(=O)(=O)Nc2cc(N)n[nH]2)c(SCc2nc(N)nc(N(C)C)n2)cc1Cl`, the GI50 in [1], in assay [2], in [3], in assay [20], in assay [18] and in assay [6] was > 10 µM (inactive) throughout. In addition, the GI50 in assay [7], in assay [8], in assay [9], in [10], in assay [19] and in [11] was > 10 µM (inactive) throughout. For the same molecule, the GI50 in assay [12], in [13], in assay [14], in assay [15], in assay [16] and in [17] was > 10 µM (inactive) throughout.

Turning to `CSCCCNC(=O)c1csc(-c2csc(CCN)n2)n1`, the GI50 in assay [1] is > 100 µM (inactive); in assay [2], > 100 µM (inactive); in [3], 82.8 µM (inactive); in assay [4], 52.5 µM (inactive); in assay [5] it was > 100 µM (inactive); in assay [18], 43.8 µM (inactive). Further, the GI50 in assay [7] was > 100 µM (inactive); in [8] it was > 100 µM (inactive); in [9], 49.4 µM (inactive); in assay [10] it was > 100 µM (inactive); in assay [19], > 100 µM (inactive); in assay [11], > 100 µM (inactive). Further, the GI50 in [12] is 93.1 µM (inactive); in assay [13], > 100 µM (inactive); in assay [14], 68.1 µM (inactive); in assay [15] it was 91.4 µM (inactive); in assay [16] it was > 100 µM (inactive); in [17], 38.6 µM (inactive).

Take `COc1cc(/C=C/c2ccc(OC)c(OC)c2)cc(OC)c1` [(E)-3,4,3',5'-TETRAMETHOXYSTILBENE]: the GI50 was 20.7 µM (inactive) in assay [1]; 32.9 µM (inactive) in assay [2]; 19.3 µM (inactive) in assay [3]; 22.9 µM (inactive) in assay [4]; 25.7 µM (inactive) in [5]; 49.2 µM (inactive) in assay [18]. The GI50 in assay [6] was 30.2 µM (inactive); in [7] it was 20.9 µM (inactive); in assay [8], 53.2 µM (inactive); in assay [9], 39.8 µM (inactive); in assay [10] it was 62.7 µM (inactive); in assay [19], 19.6 µM (inactive). Moreover, the GI50 in [11] is 41.3 µM (inactive); in [12], 19 µM (inactive); in assay [13], 73.6 µM (inactive); in [14] it was 31.3 µM (inactive); in assay [15], 30.9 µM (inactive); in assay [16] it was 46.3 µM (inactive). In addition, the GI50 in assay [17] is 19.1 µM (inactive).

Source of the values: ChEMBL document CHEMBL1201862, “PubChem BioAssay data set” (2004).
